Experiment [1] deals with BUBR1, HMGA1, KDM1A, ZNF143 and FOXM1 mRNA. Briefly: RT-PCR of BUBR1 and its transcription factors in HGADFN003 cells. The note with it: for BUBR1 relative (to β-actin) mRNA level (2-ΔΔCt) / FOXM1 relative (to β-actin) mRNA level (2-ΔΔCt) / HMGA1 relative (to β-actin) mRNA level (2-ΔΔCt) / KDM1A relative (to β-actin) mRNA level (2-ΔΔCt) / ZNF143 relative (to β-actin) mRNA level (2-ΔΔCt): Fig. 4a, HGADFN003, vs Mock = 1; for BUBR1 relative (to β-actin) mRNA level (2-ΔΔCt): P=0.0003; for FOXM1 relative (to β-actin) mRNA level (2-ΔΔCt): P=0.2399; for HMGA1 relative (to β-actin) mRNA level (2-ΔΔCt): P=0.9214; for KDM1A relative (to β-actin) mRNA level (2-ΔΔCt): P=0.683; for ZNF143 relative (to β-actin) mRNA level (2-ΔΔCt): P=0.9897. It counts as cell-based, human. The procedure:
RNA preparation was performed as described. Total RNA was extracted using Trizol reagent (TaKaRa) following the manufacturer’s instructions. cDNA was generated with M-MLV reverse transcriptase (Promega, catalog no. M170B). Reverse transcription with PCR (RT-PCR) was performed with SYBR Green Real-Time PCR Master Mix (TaKaRa). RT-PCR was carried out on a QuantStudio 3 Real-Time-PCR Instrument (ABI). Data were analyzed and further processed in QuantStuido Design and Analysis Software and GraphPad Prism v.7. Fold change in gene expression over control samples was calculated using the 2^–ΔΔCt method, where β-actin Ct values were used as an internal control. The primer sequences for PCR, synthesized by Comate Bioscience, were as follows:
β-actin_fwd (5′-[…]-3′) and β-actin_rev (5′-[…]-3′); AURKB_fwd (5′-[…]-3′) and AURKB_rev (5′-[…]-3′); BUB1_ fwd (5′-[…]-3′) and BUB1_rev (5′-[…]-3′); BUB1B_fwd (5′-[…]-3′) and BUB1B_ rev (5′-[…]-3′); CCNA2_fwd (5′-[…]-3′) and CCNA2_ rev (5′-[…]-3′); Mad2l1_fwd (5′-[…]-3′) and Mad2l1_ rev (5′-[…]-3′); TTK1_fwd (5′-[…]-3′) and TTK1_ rev (5′-[…]-3′); PLK1_fwd (5′-[…]-3′) and PLK1_ rev (5′-[…]-3′); PTBP1_fwd (5′-[…]-3′) and PTBP1_ rev (5′-[…]-3′); HMGA1_fwd (5′-[…]-3′) and HMGA1_ rev (5′-[…]-3′); KDM1A1_fwd (5′-[…]-3′) and KDM1A1_ rev (5′-[…]-3′); ZNF143_fwd (5′-[…]-3′) and ZNF143_ rev (5′-[…]-3′); FOXM1_fwd (5′-[…]-3′) and FOXM1_ rev (5′-[…]-3′).

Experiment [2] deals with heart of Lmna^G609G/G609G mice. As to the kind of experiment: Masson staining of heart (fibrosis). The format is in vivo, mouse. The note with it: 13 weeks. The procedure:
For UPCP injection, 14-day-old Lmna^G609G/G609G mice were injected intraperitoneally with either PBS or UPCP (20 mg kg^–1, every other day) and wild-type mice were injected with PBS. […] Bodyweight and lifespan were monitored after UPCP treatment. The survival rate was analyzed by the Kaplan–Meier method. We only included mice that were of sufficient bodyweight at the start of the experiment, typically at least 80% of the average littermate weight of the same sex and genotype. All animals meeting criteria for inclusion were then divided randomly into three groups according to genotype (Lmna^+/+, Lmna^G609G/G609G-Mock and Lmna^G609G/G609G-UPCP).
For histological analyses, mice of the indicated genotypes were perfused with PBS, then with 4% paraformaldehyde (PFA). Whole organs were incubated in 4% PFA at 4 °C for 16 h. All samples were paraffin embedded and sectioning by Servicebio. Subsequently, the tissues were deparaffinized and rehydrated before hematoxylin-eosin (HE) or Masson staining or immunohistochemistry (IHC). HE staining was performed using an HE Kit (Absin, catalog no. abs9217), and Masson staining was performed using Masson’s Trichrome Stain Kit (Absin, catalog no. abs9347) according to the manufacturer’s instructions. The thickness of the layers or the areas of fibrosis in the tissues were calculated using ImageJ software by a blinded investigator. For IHC, the sections were completed by the Servicebio. The images were acquired by a microscope (Leica DMi8) and analyzed with Leica Application Suite X v.3.6.0.24 (Leica). For BubR1, cytoplasmic staining in cells was scored on the intensity of staining and the proportion of positive cells by a blinded investigator. The intensity of the staining was graded as 0 (negative, no color), 1 (low positive, light yellow), 2 (positive, brown yellow) or 3 (high positive, brown), and the number of positive cells was graded as 0 (<5%), 1 (5–25%), 2 (25–50%), 3 (51–75%) or 4 (>75%). The final score was defined as staining number score multiplied by staining color score. For lamin B1, p21 or IL-6, the proportion of positive cells was used to quantify the expression of protein in tissues by a blinded investigator.

Where “and” joins values, the source holds several entries; their conditions need not be identical. Equal entries are not always repeated.

“H-YGRKKRRQRRRYNLRSRTVLCGTCGQPADKASASGSGAQSPQNCSIM-OH (cysteines drawn unpaired) [UPCP, unique progerin C-terminal peptide]”: in experiment [1] (replicate 1), the “BUBR1 relative (to β-actin) mRNA level (2-ΔΔCt)” value amounted to 5.569, the “FOXM1 relative (to β-actin) mRNA level (2-ΔΔCt)” value was 1.5201, the “HMGA1 relative (to β-actin) mRNA level (2-ΔΔCt)” value is 0.9058 and the “KDM1A relative (to β-actin) mRNA level (2-ΔΔCt)” value was 0.9262. Further, the “ZNF143 relative (to β-actin) mRNA level (2-ΔΔCt)” value in experiment [1] (replicate 1) is given as 0.3607. For the same substance, in experiment [1] (replicate 2), the “BUBR1 relative (to β-actin) mRNA level (2-ΔΔCt)” value is reported as 6.327, the “FOXM1 relative (to β-actin) mRNA level (2-ΔΔCt)” value is reported as 2.139, the “HMGA1 relative (to β-actin) mRNA level (2-ΔΔCt)” value was 1.8337 and the “KDM1A relative (to β-actin) mRNA level (2-ΔΔCt)” value was 0.9644. The “ZNF143 relative (to β-actin) mRNA level (2-ΔΔCt)” value in experiment [1] (replicate 2) came out at 1.774. Further, in experiment [1] (replicate 3), the “BUBR1 relative (to β-actin) mRNA level (2-ΔΔCt)” value is reported as 4.947, the “FOXM1 relative (to β-actin) mRNA level (2-ΔΔCt)” value is 0.8641, the “HMGA1 relative (to β-actin) mRNA level (2-ΔΔCt)” value worked out at 0.3934 and the “KDM1A relative (to β-actin) mRNA level (2-ΔΔCt)” value is 1.24. The “ZNF143 relative (to β-actin) mRNA level (2-ΔΔCt)” value in experiment [1] (replicate 3) came out at 0.8819. In experiment [1] (RT-PCR, HGADFN003 cells), the “BUBR1 mRNA expression” value is “could upregulate expression of BUBR1” and the “expression of transcription factors regulating BUBR1” value is “had little effect on their expression”. Moreover, the “fibrosis, heart” value in experiment [2] (20 mg kg^–1 i.p. every other day) is “reduced fibrosis of lamina propria in the esophagus and heart”. In addition, in experiment [2] (20 mg kg^–1 i.p., replicate 1), the “fibrosis area/ total area, heart” value is 0.003612 and 0.3612%. Besides, the “fibrosis area, heart” value in experiment [2] (20 mg kg^–1 i.p., replicate 1, total area 1.938) is reported as 0.007. Moreover, in experiment [2] (20 mg kg^–1 i.p., replicate 2, total area 1.976), the “fibrosis area, heart” value stood at 0.002. Also, in experiment [2] (20 mg kg^–1 i.p., replicate 3, total area 2.43), the “fibrosis area, heart” value is recorded as 0.004.

These data come from paper PMC10154249, “Unique progerin C-terminal peptide ameliorates Hutchinson–Gilford progeria syndrome phenotype by rescuing BUBR1” (Nature Aging, 2023).
